Test results: PubChem BioAssay (NCI)
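Assay format: 96-well plates, 48-hour exposure. The concentration for 50% growth inhibition is given as GI50. TGI: concentration producing complete growth inhibition.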

Experiments:
Experiment in all cases: inhibition of tumour cell growth, NCI panel, 48 h
DU-145 prostate = system: DU-145 prostate
OVCAR-5 ovarian = system: OVCAR-5 ovarian
UACC-62 melanoma = system: UACC-62 melanoma
HL-60(TB) leukemia = system: HL-60(TB) leukemia
RPMI-8226 leukemia = system: RPMI-8226 leukemia
SK-OV-3 ovarian = system: SK-OV-3 ovarian
HCT-15 colon = system: HCT-15 colon
ACHN renal = system: ACHN renal
SK-MEL-28 melanoma = system: SK-MEL-28 melanoma
CCRF-CEM leukemia = system: CCRF-CEM leukemia
CAKI-1 renal = system: CAKI-1 renal
SK-MEL-5 melanoma = system: SK-MEL-5 melanoma
NCI/ADR-RES ovarian = system: NCI/ADR-RES ovarian
UACC-257 melanoma = system: UACC-257 melanoma

## Cc1c2c(cc[n+]1Cc1ccccc1)c1ccc(OCc3ccccc3)cc1n2Cc1ccccc1
DU-145 prostate
  GI50: 0.499 µM
  TGI: 1.74 µM
OVCAR-5 ovarian
  GI50: 0.984 µM
  TGI: 2.21 µM
UACC-62 melanoma
  GI50: 0.286 µM
  TGI: 1.21 µM
HL-60(TB) leukemia
  GI50: 0.202 µM
  TGI: 0.47 µM
RPMI-8226 leukemia
  GI50: 0.231 µM
  TGI: 1.95 µM
SK-OV-3 ovarian
  GI50: 1.11 µM
  TGI: 2.36 µM
HCT-15 colon
  GI50: 2.01 µM
  TGI: 4.64 µM
ACHN renal
  GI50: 1.51 µM
  TGI: 2.84 µM
SK-MEL-28 melanoma
  GI50: 0.515 µM
  TGI: 1.86 µM
CCRF-CEM leukemia
  GI50: 0.336 µM
  TGI: 2.09 µM
CAKI-1 renal
  GI50: 1.67 µM
  TGI: 3.67 µM
SK-MEL-5 melanoma
  GI50: 0.182 µM
  TGI: 0.366 µM
NCI/ADR-RES ovarian
  GI50: 5.78 µM
  TGI: > 69.3 µM
UACC-257 melanoma
  GI50: 0.245 µM
  TGI: 0.789 µM
